Reference: ChEMBL document CHEMBL1629701, “Phase 2a randomized controlled trial of short-term activity, safety, and pharmacokinetics of a novel nonnucleoside reverse transcriptase inhibitor, RDEA806, in HIV-1-positive, antiretroviral-naive subjects” (Antimicrob Agents Chemother, 2010)
Calls of active or inactive are those of the source. The rule behind the calls is not given here.

Assays:
[1] = test system: Human immunodeficiency virus 1; assay: Antiviral activity against HIV1 infected in fasted human assessed as decrease in plasma viral log10 RNA copies/ml at 600 mg, po […] followed by a single dose on day 8 measured on day 9 relative to pooled placebo control; format: functional
[2] = Plasma protein binding in rat; format: ADME, cell-free; conditions: read-out: PPB
[3] = Renal clearance in rat; format: ADME, organism-based, Kidney; conditions: in vivo, read-out: CL_renal
[4] = test system: Human immunodeficiency virus 1; assay: Antiviral activity against HIV1 infected in human assessed as change in CD4 expressing T-cell count from baseline at 1000 mg, po administered every day as five enteric-coated tablets followed by a single dose on day 8 measured on day 9 relative to pooled placebo control; format: functional
[5] = test system: Human immunodeficiency virus 1; assay: Antiviral activity against HIV1 infected in human assessed as log reduction in HIV-1 RNA level at 800 mg, po administered every day; format: functional
[6] = Half life in fasted human at 400 mg, po every 24 hrs measured on day 8; format: ADME, organism-based; conditions: in vivo
Homo sapiens [7] = assay: Reduction in uric acid level in healthy human serum at 400 mg, po BID; format: functional
[8] = test system: Human immunodeficiency virus 1; assay: Antiviral activity against HIV1 infected in human assessed as change in CD8 expressing T-cell count from baseline at 800 mg, po administered every day as four enteric-coated tablets followed by a single dose on day 8 measured on day 9 relative to pooled placebo control; format: functional
[9] = Drug concentration at steady state in fasted human plasma at 1000 mg, po every 24 hrs measured on day 8; format: ADME, organism-based; conditions: read-out: Drug uptake
[10] = test system: Human immunodeficiency virus 1; assay: Antiviral activity against HIV1 infected in fasted human assessed as decrease in log10 HIV RNA copies/ml at 600 mg, po […] followed by a single dose on day 8 measured on day 9 relative to pooled placebo control; format: functional
[11] = AUC (24 hrs) in fasted human at 400 mg, po every 24 hrs measured on day 8; format: ADME, organism-based; design: time < 24 hr, dose 400 mg, route oral; conditions: plasma
[12] = test system: Human immunodeficiency virus 1; assay: Antiviral activity against HIV1 infected in fed human assessed as viral load decay rate as viral log10 RNA copies/ml/day at 800 mg, po administered every day as four enteric-coated tablets followed by a single dose on day 8 measured on day 9; format: functional
[13] = Renal clearance in dog; format: ADME, organism-based, Canis lupus familiaris, Kidney; conditions: in vivo, read-out: CL_renal
[14] = test system: Human immunodeficiency virus 1; assay: Antiviral activity against HIV1 infected in fasted human assessed as viral load decay rate as viral log10 RNA copies/ml/day at 400 mg, po BID for 7 days as four modified-release capsules followed by a single dose on day 8 measured on day 9; format: functional
[15] = test system: Human immunodeficiency virus 1; assay: Antiviral activity against HIV1 infected in fasted human assessed as as viral load decay rate as viral log10 RNA copies/ml/day at 1000 mg, po administered every day as five enteric-coated tablets followed by a single dose on day 8 measured on day 9; format: functional
[16] = Plasma protein binding in rhesus monkey; format: ADME, cell-free, Macaca mulatta; conditions: read-out: PPB
Homo sapiens [17] = organism: Homo sapiens; assay: Cardiotoxicity in healthy human assessed as changes in electrocardiographic QTc interval; format: toxicity, organism-based; conditions: in vivo
[18] = Half life in fasted human at 600 mg, po every 24 hrs measured on day 8; format: ADME, organism-based; conditions: in vivo
[19] = biological target: T1, Solute carrier family 22 member 12 (Homo sapiens, UniProt Q96S37); assay: Inhibition of human URAT-1 assessed as increase in renal uric acid excretion; design: species or system Kidney
T1 sequence (Q96S37 whole entry): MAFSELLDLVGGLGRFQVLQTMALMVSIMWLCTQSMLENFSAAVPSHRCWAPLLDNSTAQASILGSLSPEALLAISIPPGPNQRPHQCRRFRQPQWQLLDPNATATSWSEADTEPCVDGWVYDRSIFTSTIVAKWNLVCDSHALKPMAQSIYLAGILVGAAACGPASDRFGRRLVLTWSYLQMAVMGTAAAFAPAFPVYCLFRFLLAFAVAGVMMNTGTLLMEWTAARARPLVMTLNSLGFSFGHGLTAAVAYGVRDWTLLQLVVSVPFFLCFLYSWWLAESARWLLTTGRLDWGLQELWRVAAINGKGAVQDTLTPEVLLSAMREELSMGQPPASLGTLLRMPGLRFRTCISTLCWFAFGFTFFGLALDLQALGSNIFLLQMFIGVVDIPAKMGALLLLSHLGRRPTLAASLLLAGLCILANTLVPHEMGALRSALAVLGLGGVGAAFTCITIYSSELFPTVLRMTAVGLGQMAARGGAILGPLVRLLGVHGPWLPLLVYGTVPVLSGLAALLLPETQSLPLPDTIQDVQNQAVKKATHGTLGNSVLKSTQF

[20] = Tmax in fasted human plasma at 600 mg; format: ADME, organism-based
[21] = Terminal half life […] at 300 to 500 mg; format: ADME
[22] = test system: Human immunodeficiency virus 1; assay: Antiviral activity against HIV1 infected in fasted human assessed as decrease in log10 HIV RNA copies/ml at 800 mg, po […] followed by a single dose on day 8 measured on day 9 relative to pooled placebo control; format: functional
[23] = Renal clearance in human; format: ADME, organism-based, Kidney; conditions: in vivo, read-out: CL_renal
[24] = test system: Human immunodeficiency virus 1; assay: Antiviral activity against HIV1 infected in human assessed as change in CD8 expressing T-cell count from baseline at 600 mg, po BID for 7 days as four modified-release capsules followed by a single dose on day 8 measured on day 9 relative to pooled placebo control; format: functional
[25] = Plasma protein binding in human; format: ADME, cell-free; conditions: read-out: PPB
[26] = Tmax in fasted human plasma at 50 to 300 mg; format: ADME, organism-based
[27] = Cmax in fasted human plasma at 600 mg, po every 24 hrs measured on day 8; format: ADME, organism-based; design: dose 600 mg, route oral
Homo sapiens [28] = organism: Homo sapiens; assay: Reduction in uric acid level in human plasma; format: functional, organism-based
[29] = test system: Human immunodeficiency virus 1; assay: Antiviral activity against HIV1 infected in fasted human assessed as decrease in plasma viral log10 RNA copies/ml at 400 mg, po BID for 7 days as four modified-release capsules followed by a single dose on day 8 measured on day 9 relative to pooled placebo control; format: functional
[30] = Drug excretion in human urine; format: ADME; conditions: read-out: Activity
[31] = test system: Human immunodeficiency virus 1; assay: Antiviral activity against HIV1 infected in fasted human assessed as decrease in plasma viral log10 RNA copies/ml at 1000 mg, po […] followed by a single dose on day 8 measured on day 9 relative to pooled placebo control; format: functional
[32] = Tmax in fasted human at 400 mg, po every 12 hrs measured on day 8; format: ADME, organism-based; conditions: in vivo

O=C(CSc1nnc(Br)n1-c1ccc(C2CC2)c2ccccc12)Nc1ccc(C(=O)O)cc1Cl
Activity [1]: -1.5241 mL⁻¹ | fraction unbound [2]: < 0.01 | CL renal [3]: ≤ 1 mL/min | Activity [4]: 90.48 /mm3 | Activity [5]: 0.5 mL⁻¹ | half-life [6]: 11.3 h | Activity (Homo sapiens [7]): 88 µmol/L | Activity [8]: 79.41 /mm3 | concentration at 24 h [9]: 515 ng/mL | Activity [10]: -1.394 mL⁻¹ | AUC at 24 h [11]: 12400 ng·h/mL | Activity [12]: -0.2 mL⁻¹ | CL renal [13]: ≤ 1 mL/min | Activity [14]: -0.25 mL⁻¹ | Activity [15]: -0.22 mL⁻¹ | fraction unbound [16]: < 0.01 | Activity (Homo sapiens [17]): Non-toxic | half-life [18]: 7.09 h | Activity [19]: Active | Tmax [20]: 4.92 h | half-life [21]: 10.4 h | Activity [22]: -1.619 mL⁻¹ | CL renal [23]: ≤ 1 mL/min | Activity [24]: 64.54 /mm3 | fraction unbound [25]: < 0.01 | Tmax [26]: 1.25 h | Cmax [27]: 2420 ng/mL | Activity (Homo sapiens [28]): Active | Activity [29]: -2.0608 mL⁻¹ | dose excreted [30]: < 0.06% | Activity [31]: -1.8189 mL⁻¹ | Tmax [32]: 1.5 h
